# From patent publication US20030022938A1, “N-fatty acid-amino acid conjugates and therapeutic uses” (priority 2001, published 2003)
# Entries after “also recorded” stand apart in the source; their conditions may differ.
# Assays:
# IL-1β [1] = experiment: IL-1β release from human peripheral blood monocytes (ELISA), LPS stimulated or not stimulated; assay type: cell-based; design: IL-lé release from PBM not stimulated with LPS (adherence only): dose or concentration left out as unconfirmed; details: for IL-lé secretion from LPS stimulated peripheral blood mononuclear cells: 60 min preincubation, LPS 10 ng/ml 18 hours; for IL-lé release from PBM not stimulated with LPS (adherence only): unstimulated cells, 18 hours
# Method: Cells (2×106) were incubated for 60 minutes with either agent at the indicated concentrations. Vehicle (0.5% DMSO) treated cells served as controls. Cells were then not stimulated (FIG. 3A) or stimulated (FIG. 3B) with LPS (10 ng/ml) for 18 hours, at which time supernatant IL-lé was measured by ELISA. Values shown are the means obtained from triplicate samples (Control A=826 pg/ml; Control B=8.68±0.5 ng/ml).
# human T-lymphocytes = experiment: PHA stimulated T-cell proliferation (BrDU incorporation); assay type: cell-based; details: 0.1-10 mM, PHA 10 ng/ml, 72 hours
# Method: The cells were then stimulated with PHA (10 ng/ml) and incubated for 72 hours. A control set treated with NAGly/DMSO not stimulated with PHA was incubated in parallel. Cell numbers were determined by measuring BrDU incorporation for 24 hours. The values shown (see “PRO[…]” on the y-axis) are the ratios of the optical density readings from treated and control cells.
# Cell proliferation in vitro was measured by incorporation of 5-bromo-2′-deoxyuridine (BrDU) instead of thymidine into the DNA of proliferating cells. […] Cells (2×10^5 per well) were then cultured in 96 well, flat bottomed microtiter plates and stimulated with PHA (10 ng/ml) or not stimulated. Cultures were maintained for 72 hours in a standard cell incubator at 37° C. BrDU was then added to all wells and cells are then reincubated for 24 hours. The medium was removed and the cells were fixed and DNA was denatured. Anti-BrDU-peroxidase was added and the immune complex was detected by substrate (tetramethylbenzidine) reaction. The reaction was stopped with […] sulfuric acid (1N) and the product was quantified by measuring the absorbance at 492 nm with reference at 650 nm. Absorbance correlated directly to the amount of DNA synthesis, and, thereby, to the number of proliferating cells in each culture.
# human T lymphocytes [2] = experiment: Proliferation of anti CD3, CD4 treated human T lymphocytes; assay type: cell-based; details: 0.1 to 1.0 mM, vs vehicle (DMSO)
# IL-1β [3] = details: concentrations of 1 μm and 10 μm; Burstein et al. 2000; cited from earlier work
# [4] = system: formalin-induced pain behavior; experiment: Formalin test for pain reduction; assay type: in vivo; details: rats
# Method: Rats received intraplantar injections of formalin in the hindpaw, and pain behavior consisting of lifting and licking of the injected paw was observed. Drug or co-vehicle was coinjected with the formalin solution (4.5% formalin in 10% DMSO, 100μl, s.c., ipl.).
# [5] = system: arachidonic acid-induced paw edema; experiment: Arachidonic acid-induced paw edema test; assay type: in vivo, mice
# Method: The conditions employed in the paw edema test have been previously described (Calhoun et al., Agents Actions, 21:306-309, 1987; Burstein et al., J. Pharmacology and Experimental Therapeutics, 251:531-535; Burstein et al., J. Med. Chem., 35:3135-41, 1992), with water being substituted for mercury as the displacement medium. Arachidonic acid (1.0 mg) in 25 μl of saline is injected subcutaneously into the plantar surface of the right hindpaw of ether-anesthetized CD-1 female mice (20-25 g) obtained from Charles River Laboratories. The volume of the right foot is then measured to the level of the lateral malleolus by water displacement before treatment and 30 minutes after arachidonic acid injection. An N-fatty acid-amino acid conjugate, in 50 μl of peanut oil, is given p.o. to the mice 30 min prior to the induction of edema by arachidonic acid. The change in paw volume is calculated for each mouse and the significance for each group can be determined by an ANOVA test.
# The conditions were previously described by Calhoun et al. (Agents Actions, 21:306-309, 1987), and by Burstein et al. (J. Pharmacology and Experimental Therapeutics, 251:531-535; J. Med. Chem., 35:3135-41, 1992), with water being substituted for mercury as the displacement medium. Arachidonic acid (1.0 mg in 25μl of saline) was injected subcutaneously into the plantar surface of the right hindpaw of ether-anesthetized CD-1 female mice (20-25 g) obtained from Charles River Laboratories. The volume of the right foot was measured to the level of the lateral malleous by water displacement before treatment and 30 minutes after arachidonic acid injection. […] The change in paw volume was calculated for each mouse and the significance for each group was determined by an ANOVA test.
# [6] = system: anandamide levels in RAW cells; experiment: Anandamide levels in intact cultured RAW cells (HPLC-MS/MS); assay type: cell-based, murine; design: elevation of basal concentrations of anandamide: dose or concentration left out as unconfirmed
# Method: Cells were grown as described previously (Pestonjamasp and Burstein, Biochim Biophys Acta, 1394(2-3):249-60, 1998).
# NF-κB = experiment: NFk-B inhibition studies in PBM (DNA binding, autoradiographic-PAGE); assay type: cell-based; details: 1 hour, then LPS 10 ng/ml 60 minutes; human PBM, two donors
# Method: PBM from two donors were prepared and treated separately. Cell extracts were then obtained and analyzed for DNA binding of NF-kB, as determined by autoradiographic-PAGE measurement, according to the following method. […] Media were then removed and the cells were transferred to 1.5 ml microcentrifuge tubes and washed 2 times with ice cold PBS. After centrifugation at 10,000 rpm, PBS was removed and 0.5 ml of cytoplasmic extraction buffer (buffer A) was added to the cell pellet. Tubes were vortexed and placed on ice for 10 minutes, then centrifuged at 12,000 rpm for 5 minutes. Cells were washed once with buffer A, which was then added to previous cytosol extract fraction. Cytoplasmic extracts were saved at −80° C. until use. 0.1 ml of cold nuclear extraction buffer (buffer B) was then added to precipitated nuclei and incubated for 60-120 minutes in ice. Nuclear extracts were obtained by centrifugation at 12,000 rpm for 10 minutes and saved at −80° C. until use. (Extraction buffer A is a hypotonic solution and contains HEPES, KCl, EDTA, EGTA, DTT, PMSF, leupeptin, antipain, aprotinin, and NP-40 detergent. Extraction buffer B is a high salt buffer and contains all of the above agents plus glycerol.) The protein concentrations of the nuclear extracts were determined by the Bradford protein assay (Coumassie blue staining). […] Gels were scanned and analysed utilizing the Adobe software for PC.
# human T lymphocytes [7] = details: Burstein et al. 2000; cited from earlier work
# [8] = system: RAW 264.7 murine monocyte cells; experiment: RAW cell proliferation (MTT assay); assay type: cell-based; details: 24 hours treatment; 25, 50 and 100 mM
# Method: Cells were maintained in MEM containing 0.5% serum overnight. […] After a 24 hour incubation period, […] MTT (Sigma Co) solution (5 mg/ml in PBS) was added to each well and incubated for 2 hours at 37° C. Then, cells were triturated in 1.1 ml isopropanol MTT solubilization solution (Sigma Co). […] of this mixture was then transferred in duplicate to a 96 well plate and the optical density recorded using a ThermoMax® microplate reader at […] absorbance. Based on a standard curve with known numbers of cells, experimental readings were in the linear range for cell numbers.
# Values shown in FIG. 5 are optical density readings obtained using the MTT assay and are directly proportional to the numbers of cells. They are the means of four replicates ± SD. […] The values shown are the optical density readings obtained from the MTT assay where a value of 0.5 is approximately equivalent to 2×10^4 cells. Vehicle treated cells served as the control and gave a reading of 0.396±0.047 O.D. units. The data shown is representative of three independent experiments.
# [9] = system: blood levels of anandamide; details: 10 mg/kg p.o., rats, 45 minutes post treatment, vs vehicle-treated
# Method: Anandamide and NAGly levels were measured in plasma extracts by HPLC-MS/MS with d8-anandamide added as an internal standard. Reverse phase HPLC was performed on a 100×1 mm i.d. column packed with ODS Hypersil® (3 μm, 120 A pore size, Keystone Scientific, Inc., Bellefonte, Pa.). A Rheos® 2000 micro HPLC pumping system was used to pump the mobile phase (90% methanol, 10% 0.05% pH 5.7 aqueous ammonium acetate buffer) at 50μl/minute. The outlet from the column was connected directly to the electrospray ion source of a Finnigan® LCQ quadrupole ion trap mass spectrometry system. Positive ion electrospray ionization was used with the source at 4500 V, the capillary at 200° and the nitrogen sheath gas at a relative setting of 60. NAGly eluted at 1.4 minutes and was detected by MS2 of its MH+ion (m/z 362.2) with an isolation window of 2.5 Th and relative collision energy (CID) of 29%. Full product ion spectra were collected from m/z 95-370 and peak areas from ion plots of m/z 287.2 were used for quantitation. Anandamide and d8-anandamide were similarly detected using their MH+ions (m/z 348.2 and 356.2) as precursors with isolation windows of 2.5 Th and CID at 30%. […] Concentrations of NAGly and anandamide were calculated from their peak area ratios to the internal standard with reference to an external calibration curve. […]
# [10] = system: arachidonic acid release in RAW cells; experiment: Arachidonic acid release in RAW cells; assay type: cell-based, murine
# Method: Radiolabelled arachidonic acid was incorporated into the cellular lipid pools for 20 hours. […] Over the concentration range of 1.6-32 mM, a 300% increase in labeled, free arachidonic acid was found in the media when compared to vehicle treated control values. Media from cells in the control group contained 8,800±1600 dpm.
# The cells were grown in MEM with 1% penicillin-streptomycin and 10% fetal bovine serum at 37° C. under 95% […]:5% carbon dioxide to about 85% confluence. Cells were contained in 24-well plates and labeled with 100,000 dpm/ml/well of ^3H or ^14C arachidonic acid at 37° C. for 20 hours (Pestonjamasp and Burstein, Biochim Biophys Acta, 1394(2-3):249-60, 1998). The wells were washed 4 times with 0.5% BSA in MEM followed by incubation in 1 ml 0.1% BSA-MEM for 60 minutes. […] Control values were obtained with 10 μl of vehicle. Media were collected, centrifuged at 3000×g to remove cells, and 0.1 ml withdrawn and assayed for radioactivity by liquid scintillation counting.
# [11] = 275 nmol coinjected with formalin
compound,measurement,setting,value
"CCCCC/C=C\C/C=C\C/C=C\C/C=C\CCCC(=O)NCCO [anandamide, reference compound]",IL-lé secretion from LPS stimulated peripheral blood mononuclear cells,IL-1β [1],smaller effect
same,IL-lé secretion from LPS stimulated peripheral blood mononuclear cells,IL-1β [1]; listed as Anandamide,less effective than NAGly
same,IL-lé release from PBM not stimulated with LPS (adherence only),IL-1β [1],less effective than NAGly
same,proliferation of PHA stimulated T-cells (proliferation index),human T-lymphocytes,little or no effect
same,proliferation of PHA stimulated T-cells (proliferation index),human T-lymphocytes; listed as Anandamide,no significant effects
same,"proliferation of anti CD3, CD4 treated human T lymphocytes",human T lymphocytes [2],either no effect or a modest inhibition
same,"proliferation of anti CD3, CD4 treated human T lymphocytes",human T lymphocytes [2]; listed as Anandamide,only inhibition
same,IL-1β secretion from stimulated human PBMC,IL-1β [3],modestly suppress
"CCCCC/C=C\C/C=C\C/C=C\C/C=C\CCCC(=O)O [arachidonic acid, reference compound]",pain suppression in the formalin test,[4]; [11],Neither glycine nor arachidonic acid (275 nmol) suppressed pain
"NCC(=O)O [glycine, reference compound]",pain suppression in the formalin test,[4]; [11],Neither glycine nor arachidonic acid (275 nmol) suppressed pain
"COc1ccc2c(c1)c(CC(=O)O)c(C)n2C(=O)c1ccc(Cl)cc1 [indomethacin, reference compound]",paw edema response of the reference NSAID,[5]; 0.2 mg/kg,equivalent response
Deuterated N-arachidonylglycine [d8-NAGly],elevation of basal concentrations of anandamide,[6],50%
same,increase in anandamide (unlabelled),[6]; 10 mM deuterated NAGly,~3 ng/mL
same,increase in d8-anandamide,[6]; 10 mM deuterated NAGly,< 0.5 ng/mL
N-arachidonyl glycine [NAGly],binding of NF k-B to DNA / NFk-B activation,NF-κB,effectively reduces; also recorded: strong inhibitory effect
same,"proliferation of CD3-CD4 antibody-stimulated T-cells, prior observation",human T lymphocytes [7],biphasic effect
same,IL-lé secretion from LPS stimulated peripheral blood mononuclear cells,IL-1β [1],more effective inhibitor than anandamide; also recorded: suppresses; also recorded: inhibitory in a dose-related fashion
same,IL-lé release from PBM not stimulated with LPS (adherence only),IL-1β [1],more effective inhibitor than anandamide; also recorded: striking reduction; also recorded: markedly reduces
same,second phase (tonic pain) of the formalin response,"[4]; 275 nmol coinjected with formalin, intraplantar",markedly suppressed
same,first phase (acute pain) of the formalin response,"[4]; coinjected with formalin, intraplantar",no effect
same,"proliferation of anti CD3, CD4 treated human T lymphocytes",human T lymphocytes [2],inverse dose-related increase; also recorded: stimulatory at low concentrations and somewhat inhibitory at higher concentrations
same,elevation of basal concentrations of anandamide,[6],50%
same,inhibition of RAW cell proliferation (MTT optical density),[8],dose-related inhibition; also recorded: Significant decreases in cell numbers; also recorded: significant inhibition of cell proliferation
same,IL-1β secretion from stimulated human PBMC,IL-1β [3],modestly suppress
same,reduction of paw volumes,"[5]; 4 mg/kg orally, vs vehicle treated",reduced paw volumes by one half
same,paw edema response compared with indomethacin,[5]; NAGly 4 and 40 mg/kg vs 0.2 mg/kg indomethacin,equivalent response
same,reduction of paw edema,"[5]; doses of 4 and 40 mg/kg p.o., 30 min before arachidonic acid, vs untreated control mice that received only arachidonic acid",more than 50%
same,rise in blood levels of anandamide,[9],nearly ten-fold rise
same,"increase in labeled, free arachidonic acid in the media","[10]; 1.6-32 mM, 60 minutes, vs vehicle treated control",300%
same,stimulation of arachidonic acid release,[10]; range of 2-32 mM,three fold stimulation
